These results are taken from PubChem BioAssay (NCI).

Experiment in all cases: growth of human tumour cells (NCI), 48 h
The test system of assay [1] is CAKI-1 renal.
Assay [2] has as its system HL-60(TB) leukemia.
In assay [3] the test system is MOLT-4 leukemia.
In assay [4] the test system is MALME-3M melanoma.
In assay [5] the test system is RXF 393 renal.
Assay [6] deals with NCI/ADR-RES ovarian.
For assay [7], the system named is TK-10 renal.
Assay [8] relates to EKVX NSCLC.
In assay [9] the test system is DU-145 prostate.
Assay [10] relates to SK-MEL-28 melanoma.

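Exposure lasted 48 hours, with cells grown in 96-well plates and compounds tested at five concentrations. GI50 marks 50% less growth. TGI: total growth inhibition.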 Bounds are passed on as bounds.

As for `OCC(O)c1nc2ccc3[nH]ncc3c2c2c1CCCC2` (stereo not given), the GI50 was 971 nM in assay [1]; 1240 nM in assay [2]; 1560 nM in assay [3]; 1670 nM in [4]; 612 nM in assay [5]; 1340 nM in assay [6]. The GI50 in [7] is 1420 nM; in assay [8], 1300 nM; in assay [9], 1590 nM; in assay [10], 1220 nM. In addition, the TGI in assay [1] is above 50000 nM; in assay [2], 3140 nM; in [3], above 50000 nM; in assay [4] it was 4820 nM; in assay [5] it was 1450 nM; in assay [6] it was 4510 nM. In addition, the TGI in assay [7] was above 50000 nM; in [8], 4670 nM; in assay [9], above 50000 nM; in assay [10], 3760 nM.
Take `CC(C)(C)CC(C)(C)NCc1cc(C(C)(C)C)cc(CNC(C)(C)CC(C)(C)C)c1O`: the GI50 was 3690 nM in [1]; 2510 nM in assay [2]; 2930 nM in assay [3]; 1850 nM in assay [4]; 1920 nM in assay [5]; 2810 nM in assay [6]. Further, the GI50 was 2550 nM in [7], 2780 nM in [8], 6070 nM in assay [9] and 5240 nM in assay [10]. For the same molecule, the TGI in [1] is 17200 nM; in assay [2] it was 8040 nM; in assay [3], 9340 nM; in assay [4], 4000 nM; in assay [5], 5850 nM; in [6] it was 11700 nM. The TGI in assay [7] was found to be 5870 nM; in [8] it was 14100 nM; in assay [9], 18500 nM; in [10], 17600 nM.
For `Cn1c2ccc(Br)cc2c2c3c(c4c5ccccc5[nH]c4c21)C(=O)N(O)C3=O`, the GI50 in assay [1] is 220 nM; in assay [2], 301 nM; in assay [3], 46 nM; in assay [4] it was 186 nM; in [5] it was 158 nM; in assay [6], 357 nM. For the same molecule, the GI50 was 655 nM in assay [7], 232 nM in assay [8], 87.1 nM in assay [9] and 212 nM in assay [10]. For the same molecule, the TGI in assay [1] is 885 nM; in assay [2], 1850 nM; in assay [3], 312 nM; in assay [4] it was 386 nM; in assay [5] it was 329 nM; in [6] it was above 100000 nM. Moreover, the TGI in assay [7] came out at 1420 nM; in [8] it was 896 nM; in assay [9], 570 nM; in [10], 498 nM.
Consider `C=C1CCC2C(C)(COC(=O)CC)C(OC(=O)CC)CCC2(C)C1C/C=C1/C(=O)OCC1OC(=O)CC` (stereo not given), for which the GI50 is 1650 nM in [1]; 1820 nM in [2]; 2620 nM in assay [3]; 2080 nM in [4]; 1660 nM in [5]; 2840 nM in assay [6]. Further, the GI50 in assay [7] is 2040 nM; in assay [8], 7960 nM; in assay [9] it was 1820 nM; in assay [10], 1950 nM. Further, the TGI was 3370 nM in [1]; 5850 nM in [2]; 11600 nM in [3]; 3990 nM in assay [4]; 3050 nM in assay [5]; 10500 nM in [6]. The TGI in assay [7] turned out to be 5590 nM; in [8], 22100 nM; in [9], 3250 nM; in [10] it was 4100 nM.
`Nc1ccn(C2OC(COC(=O)C34CC5CC(CC(C5)C3)C4)C(O)C2O)c(=O)n1` (stereo not given): the TGI in assay [1] was above 100000 nM; in [2], above 34100 nM; in [3], above 100000 nM; in assay [4] it was above 100000 nM; in assay [5] it was above 100000 nM; in assay [6], above 100000 nM. In addition, the TGI in assay [7], in assay [8], in [9] and in [10] was above 100000 nM each time.
For the molecule `COc1cc(Nc2nc3ccccc3cc2C(=O)Nc2ccc(F)c(F)c2)cc(OC)c1OC`, the GI50 in assay [1] is 2720 nM; in [2] it was 2430 nM; in assay [3], 2040 nM; in assay [4], 2680 nM; in [5], 2730 nM; in assay [6], 2490 nM. Also, the GI50 is 4520 nM in assay [7], 2870 nM in assay [8], 4250 nM in assay [9] and 3540 nM in assay [10]. The TGI in assay [1] was above 100000 nM; in assay [2], 7140 nM; in assay [3], 6150 nM; in [4] it was 6410 nM; in [5], 7980 nM; in assay [6], 7210 nM. The TGI in [7], in assay [8], in assay [9] and in [10] was above 100000 nM in each case.
